Experiment [1] addresses T1, BRD4(1) (Homo sapiens, UniProt O60885).
T1 construct: N-terminally His-tagged bromodomains (BRD4(1) at 20 nM and BRD4(2) at 100 nM); made in house; host or cells: E. coli BL21(DE3)
Nature of the experiment: Inhibition of tetra-acetylated histone H4 binding to individual BET bromodomains (AlphaScreen). The following applies: His-tagged BRD4(1) 20 nM, biotinylated tetra-acetylated histone H4 peptide, 30 min incubation; read-out: FRET activity BRD4(1). Here is the method: Proteins were cloned and overexpressed with a N-terminal 6×His tag, then purified by nickel affinity followed by size exclusion chromatography. Briefly, E. coli BL21(DE3) cells were transformed with a recombinant expression vector encoding N-terminally Nickel affinity tagged bromodomains from Brd2, Brd3, Brd4. Cell cultures were incubated at 37° C. with shaking to the appropriate density and induced overnight with IPTG. The supernatant of lysed cells was loaded onto Ni-IDA column for purification. Eluted protein was pooled, concentrated and further purified by size exclusion chromatography. Fractions representing monomeric protein were pooled, concentrated, aliquoted, and frozen at −80° C. for use in subsequent experiments.
Binding of tetra-acetylated histone H4 peptide (Millipore) and BET bromodomains was confirmed by Amplified Luminescent Proximity Homogenous Assay (AlphaScreen). N-terminally His-tagged bromodomains (BRD4(1) at 20 nM and BRD4(2) at 100 nM) and biotinylated tetra-acetylated histone H4 (10-25 nM) were incubated in the presence of nickel chelate acceptor beads and streptavidin donor beads (PerkinAlmer, 6760000K) added to a final concentration of 2 μg/mL under green light in a white 96 well microtiter plate (Greiner). For inhibition assays, serially diluted compounds were added to the reaction mixtures in a 0.1% final concentrations of DMSO. Final buffer concentrations were 50 mM HEPES, 100 mM NaCl and 0.1% BSA buffer, pH 7.4 and optimized to 30 min incubation time. Assay plates were read at 570 nm on a Synergy H4 Plate Reader (Biotek). IC50 values were determined from a dose response curve.
In general terms: In Alpha technology, singlet oxygen from a donor bead excites a nearby acceptor bead.

The subject of experiment [2] is MV4-11 cells. The experiment in a line: Washout proliferation: durability of proliferation inhibition in MV4-11 cells. The format is cell-based. The following applies: Homo sapiens. Here is the method:
FIG. 1 depicts inhibition of proliferation. […] MV4-11 cells were treated for 16 hours after which compounds were removed, cells washed 3 times with media, replaced with media and proliferation was measured at 72 h post washout.
MV4-11 cells (CRL-9591) were plated at a density of 5×10^4 cells per well in 96 well flat bottom plates and treated with increasing concentrations of compounds or DMSO (0.1%) in IMDM media containing 10% FBS and penicillin/streptomycin. Triplicate wells were used for each concentration and a well containing only media was used as a control. Plates were incubated at 37° C., 5% CO2 for 16 h after which the compounds were removed, replaced with media, and proliferation was measured at 72 hours post washout by adding 100 μL of the Cell Titer Fluor 96 Cell Viability Assay (Promega). After the incubation for 45 min at 37° C. with 5% CO2 fluorescence is read on the Synergy plate reader set at 380-400 nm Ex/505 nm. Percentage of cell viability to DMSO-treated cells was calculated after correcting for background by subtracting the blank well's signal. IC50 values were calculated using the GraphPad Prism software from the dose-dependent inhibition of proliferation.

Experiment [3] concerns BCL2. Nature of the experiment: Durability of BCL2 expression inhibition after washout in MV4-11 cells. The class given is cell-based. The following applies: Homo sapiens. As to the method: (§1) MV4-11 cells were treated for 3 hours after which compounds were removed, cells washed with media 3 times, replaced with media; harvest was performed 5 hours post washout and the expression of MYC and BCL2 was determined.
(§2) MV4-11 cells (CRL-9591) were plated at a density of 2.5×10^4 cells per well in 96 well U-bottom plates and treated with increasing concentrations of test compound or DMSO (0.1%) in IMDM media containing 10% FBS and penicillin/streptomycin, and incubated for […] 37° C. after which the compounds are removed, replaced with media and cells were harvested at 5 hours post washout. Triplicate wells were used for each concentration. Cells were pelleted by centrifugation and harvested using the mRNA Catcher PLUS kit according to manufacturer's instructions. The eluted mRNA isolated was then used in a one-step quantitative real-time PCR reaction, using components of the RNA UltraSense™ One-Step Kit (Life Technologies) together with Applied Biosystems TaqMan® primer-probes for cMYC and Cyclophilin. Real-time PCR plates were run on a ViiA™7 real time PCR machine (Applied Biosystems), data was analyzed, normalizing the Ct values for MYC and BCL2 to an internal control, prior to determining the fold expression of each sample, relative to the control.

In experiment [4] the test system is MYC. The experiment in a line: Durability of MYC expression inhibition after washout in MV4-11 cells. As to conditions: Homo sapiens. The format is cell-based. As to the method:
as §1, §2

Experiment [5] concerns cMYC. The experiment in a line: Inhibition of cMYC expression in cancer cell lines (MV4-11, real-time PCR). The class given is cell-based. The following applies: Homo sapiens, read-out: Myc activity. Here is the method: MV4-11 cells (CRL-9591) were plated at a density of 2.5×10^4 cells per well in 96 well U-bottom plates and treated with increasing concentrations of test compound or DMSO (0.1%) in IMDM media containing 10% FBS and penicillin/streptomycin, and incubated for 3 h at 37° C. Triplicate wells were used for each concentration. Cells were pelleted by centrifugation and harvested using the mRNA Catcher PLUS kit according to manufacturer's instructions. The eluted mRNA isolated was then used in a one-step quantitative real-time PCR reaction, using components of the RNA UltraSense™ One-Step Kit (Life Technologies) together with Applied Biosystems TaqMan® primer-probes for cMYC and Cyclophilin. Real-time PCR plates were run on a ViiA™7 real time PCR machine (Applied Biosystems), data were analyzed, normalizing the Ct values for cMYC to an internal control, prior to determining the fold expression of each sample, relative to the control.

The subject of experiment [6] is MV4-11 cells. Nature of the experiment: Inhibition of cell proliferation in cancer cell lines (MV4-11, CellTiter Aqueous One). As to conditions: Homo sapiens, read-out: Proliferation activity. The class given is cell-based. Here is the method:
MV4-11 cells (CRL-9591) were plated at a density of 5×10^4 cells per well in 96 well flat bottom plates and treated with increasing concentrations of test compound or DMSO (0.1%) in IMDM media containing 10% FBS and penicillin/streptomycin. Triplicate wells were used for each concentration and a well containing only media was used as a control. Plates were incubated at 37° C., 5% CO2 for 72 h before adding 20 μL of the CellTiter Aqueous One Solution (Promega) to each well and incubating at 37° C., 5% CO2 for an additional 3-4 h. The absorbance was read at 490 nm in a spectrophotometer and the percentage of cell titer relative to DMSO-treated cells was calculated after correcting for background by subtracting the blank well's signal. IC50 values were calculated using the GraphPad Prism software.

Like-named read-outs stand apart in the source and are kept apart here.

As to `C=CC(=O)N(C)c1cnc2nc(N3CCCC3)n(Cc3ccccc3)c2c1` [Example 15, N-(1-Benzyl-2-(pyrrolidin-1-yl)-1H-imidazo[4,5-b]pyridin-6-yl)-N-methylacrylamide], the IC50 in experiment [1] was no more than 0.3 µM; in experiment [2] (MV4-11, read-out: IC50 of inhibition of proliferation after 72 hours of compound removal) it was 5.98 µM; in experiment [3] (MV4-11, read-out: IC50 of BCL2 inhibition at 5 hours post washout) it was 7.9 µM; in experiment [4] (MV4-11, read-out: IC50 of sustained MYC inhibition at 5 h post washout), 23 µM; in experiment [5] (MV4-11, 3 h) it was 0.3 to 3 µM; in experiment [6] (MV4-11, 72 h) it was 0.3 to 3 µM.

Turning to `CC(=O)N(C)c1cnc2nc(N3CCCC3)n(Cc3ccccc3)c2c1` [Example 18, N-(1-Benzyl-2-(pyrrolidin-1-yl)-1H-imidazo[4,5-b]pyridin-6-yl)-N-methylacetamide], the IC50 in experiment [1] is no more than 0.3 µM; in experiment [2] (MV4-11 cells treated 16 h, washed, proliferation measured 72 h post washout, read-out: IC50 of inhibition of proliferation after 72 hours of compound removal) it was roughly 50 µM; in experiment [3] (MV4-11 cells treated 3 h, washed, harvested 5 h post washout, read-out: IC50 of BCL2 inhibition at 5 hours post washout), roughly 50 µM; in experiment [4] (MV4-11 cells treated 3 h, washed, harvested 5 h post washout, read-out: IC50 of sustained MYC inhibition at 5 h post washout), 29 µM; in experiment [5] (MV4-11 cells, 3 h incubation, cMYC mRNA), 0.3 to 3 µM; in experiment [6] (MV4-11 cells, 72 h incubation), 0.3 to 3 µM.

These data come from patent US20190263799A1, “1H-IMIDAZO[4,5-B]PYRIDINYL AND 2-OXO-2,3-DIHYDRO-1H-IMIDAZO[4,5-B]PYRIDINYL HETEROCYCLIC BET BROMODOMAIN INHIBITORS” (ZENITH EPIGENETICS LTD., priority 2015, published 2019).
